Results published in patent publication US11214803B2, “Modulators of YAP1 expression” (Ionis Pharmaceuticals, Inc., priority 2019, dated 2022).
Strand notation (5' to 3'): a small letter for the sugar, then the base; units joined by * are phosphorothioate-linked, units joined directly phosphodiester-linked; [ ] holds rarer units or linkages, { } end groups; capitals alone tell only the bases. k = constrained ethyl (cEt); [5mC] = 5-methylcytosine; d = 2'-deoxy (DNA)

Test system: Yap1 mRNA
Test: Dose-dependent inhibition of human Yap1 in A-431 cells (Example 7, 10,000 cells per well, RTS36584)
Type: cell-based
Conditions: free uptake
Description: Modified oligonucleotides described in the studies above were tested at various doses in A-431 cells. Cultured A-431 cells at a density of 10,000 cells per well were treated using free uptake with modified oligonucleotides diluted to concentrations described in the tables below. After approximately 48 hours, Yap1 mRNA levels were measured as previously described using the Human Yap1 primer-probe set RTS36584. Yap1 mRNA levels were normalized to total RNA content, as measured by RIBOGREEN®. Results are presented in the tables below as percent control of the amount of Yap1 mRNA relative to untreated control cells (% UTC). IC50s were calculated using a linear regression on a log/linear plot of the data in excel.

[1] = 15.6 nM, A-431 cells, 10,000 cells per well, approximately 48 hours
[2] = 62.5 nM, A-431 cells, 10,000 cells per well, approximately 48 hours
[3] = 4000.00 nM, A-431 cells, 10,000 cells per well, approximately 48 hours
[4] = A-431 cells, approximately 48 hours, linear regression on log/linear plot
[5] = Table 57, 15.6 nM, A-431 cells 10,000 cells per well, 48 hours
[6] = Table 57, 62.5 nM, A-431 cells 10,000 cells per well, 48 hours
[7] = Table 57, 4000.00 nM, A-431 cells 10,000 cells per well, 48 hours
[8] = Table 57, A-431 cells 10,000 cells per well
[9] = Table 58, 15.6 nM, A-431 cells 10,000 cells per well, 48 hours
[10] = Table 58, 62.5 nM, A-431 cells 10,000 cells per well, 48 hours
[11] = Table 58, 4000.00 nM, A-431 cells 10,000 cells per well, 48 hours
[12] = Table 58, A-431 cells 10,000 cells per well

Substance | Yap1 mRNA, % UTC [1] | Yap1 mRNA, % UTC [2] | Yap1 mRNA, % UTC [3] | IC50 [4] | Yap1 mRNA, % UTC [5] | Yap1 mRNA, % UTC [6] | Yap1 mRNA, % UTC [7] | IC50 [8] | further results
958550 (k[5mC]*k[5mC]*kT*dG*dT*dA*dG*dA*d[5mC]*dA*d[5mC]*dA*dT*kA*k[5mC]*kT; antisense) [compound 958550] | 91 % UTC | 60 % UTC | 10 % UTC | 100 nM |  |  |  |  | 
958473 (kG*kT*k[5mC]*dT*d[5mC]*d[5mC]*dT*dT*dA*dG*dA*dT*d[5mC]*k[5mC]*kT*kT; antisense) [compound 958473] |  |  |  |  |  |  |  |  | Yap1 mRNA, % UTC (Table 60, 15.6 nM, A-431 cells 10,000 cells per well, 48 hours): 85 % UTC; Yap1 mRNA, % UTC (Table 60, 62.5 nM, A-431 cells 10,000 cells per well, 48 hours): 60 % UTC; Yap1 mRNA, % UTC (Table 60, 4000.00 nM, A-431 cells 10,000 cells per well, 48 hours): 17 % UTC; IC50 (Table 60, A-431 cells 10,000 cells per well): 100 nM
958785 (kG*k[5mC]*kA*dA*dT*d[5mC]*d[5mC]*dA*d[5mC]*dA*dA*dT*dT*k[5mC]*k[5mC]*kA; antisense) [compound 958785] | 78 % UTC | 52 % UTC | 6 % UTC | 100 nM |  |  |  |  | 
958546 (k[5mC]*kA*kT*dA*d[5mC]*dT*d[5mC]*dT*dA*dG*dT*dT*dA*k[5mC]*kA*kT; antisense) [compound 958546] |  |  |  |  | 91 % UTC | 72 % UTC | 22 % UTC | 200 nM | 
958526 (kA*kG*kT*dA*dA*dG*dA*dA*d[5mC]*dA*dA*dT*d[5mC]*kT*kT*kG; antisense) [compound 958526] |  |  |  |  | 118 % UTC | 83 % UTC | 17 % UTC | 200 nM | 
958544 (kG*k[5mC]*kT*dA*dA*dA*dT*dT*d[5mC]*dA*dA*d[5mC]*dT*kA*k[5mC]*k[5mC]; antisense) [compound 958544] | 65 % UTC | 77 % UTC | 17 % UTC | 100 nM |  |  |  |  | 
958549 (kT*kG*kT*dA*dG*dA*d[5mC]*dA*d[5mC]*dA*dT*dA*d[5mC]*kT*k[5mC]*kT; antisense) [compound 958549] | 98 % UTC | 78 % UTC | 28 % UTC | 300 nM |  |  |  |  | 
958556 (k[5mC]*kA*kA*d[5mC]*d[5mC]*dA*dA*d[5mC]*dT*dA*dT*dT*dA*k[5mC]*kT*kT; antisense) [compound 958556] |  |  |  |  | 103 % UTC | 95 % UTC | 34 % UTC | 500 nM | 
958466 (kG*kT*k[5mC]*dA*dT*dT*dA*dA*dG*dG*dA*dT*dG*kT*k[5mC]*kA; antisense) [compound 958466] |  |  |  |  | 84 % UTC | 81 % UTC | 30 % UTC | 300 nM | 
958547 (k[5mC]*kA*k[5mC]*dA*dT*dA*d[5mC]*dT*d[5mC]*dT*dA*dG*dT*kT*kA*k[5mC]; antisense) [compound 958547] |  |  |  |  |  |  |  |  | Yap1 mRNA, % UTC [9]: 98 % UTC; Yap1 mRNA, % UTC [10]: 74 % UTC; Yap1 mRNA, % UTC [11]: 22 % UTC; IC50 [12]: 200 nM
958727 (kA*kT*k[5mC]*dT*dG*dT*d[5mC]*dA*dG*dT*dT*dA*dT*k[5mC]*k[5mC]*kT; antisense) [compound 958727] |  |  |  |  |  |  |  |  | Yap1 mRNA, % UTC [9]: 90 % UTC; Yap1 mRNA, % UTC [10]: 42 % UTC; Yap1 mRNA, % UTC [11]: 8 % UTC; IC50 [12]: 100 nM
